These results are taken from patent US20080274121A1, “Inhibition of Angiogenesis by Mithramycin” (priority 2007, published 2008).

In data set [1] the test system is Sp1 recruitment into the Sp1 promoter. Put plainly: ChIP assay, PANC-1 cells in vitro. The format is cell-based, human. The conditions noted are these: 100 μg/ml BVZ or 0.1 μM MIT, 2 days. How it is done:
(§1) FIG. 15. Effects of treatment with BVZ and MIT on Sp1 recruitment into the Sp1 promoter in human pancreatic cancer cells in vitro and in vivo. A, schematic structures of the minimal Sp1 promoters. The nucleotide positions and sequences of Sp1-binding sites and polymerase chain reaction forward and reverse primers flanking those sites for ChIP assay are shown. B, Sp1 and VEGF promoter reporter constructs were transfected into PANC-1 cells in triplicate and incubated for 12 hours. The cells were then incubated for another 24 hours in a medium alone or a medium containing 100 μg/ml BVZ or 0.1 μM MIT. Total protein lysates were harvested from the cell cultures for measurement of Sp1 and VEGF promoter activity using a luciferase assay kit. The relative Sp1 and VEGF promoter activities were assessed, and the activity in treated groups was expressed as the fold change of that in their respective control groups. C and D, chromatin was extracted from (C) PANC-1 cells that were incubated in vitro for 2 days in a medium alone or a medium containing 100 μg/ml BVZ or 0.1 μM MIT and (D) tumors formed by PANC-1 cells in nude mice that received treatment as described in FIG. 2A. […]

The subject of the next data set is H727 cells. The experiment in a line: H727 carcinoid subcutaneous xenograft.
The nature of data set [2]: H727 carcinoid subcutaneous xenograft. The conditions noted are these: BVZ; abstract does not name the model.
Description: (§2) H727 carcinoid tumor volume during treatment course in nude mouse xenograft model for various doses and administration routes of mithramycin.
(§3) H727 and BON-1 cells were injected into the subcutis of nude mice (n=5). When tumors reached around 4 mm in diameter, the animals received different doses of MIT (0.10 [M-10], 0.20 [M-20], and 0.40 [M-40] mg/kg) via intraperitoneal injection twice a week. Tumors were measured once every week, and at each measurement, the mean±standard deviation (SD) tumor volume in the five mice in each group was calculated (A). […] This was one representative experiment of two with similar results.
(§4) H727 and BON-1 cells were injected subcutaneously into nude mice. […] A. Tumors were measured once every week, and at each measurement, the mean±SD tumor volume in the five mice in each group was calculated. B. Mouse body weights were measured. The asterisks indicate the statistical significance (P<0.01) in a comparison between the treated and respective control groups. This was one representative experiment of two with similar results.
(§5) H727 carcinoid cells were injected into the subcutis of groups of mice (n=5). When tumors reached 4 mm in diameter, animals received injections of PBS (controls), MIT (0.10, 0.20, or 0.40 mg/kg (s.c. or i.p.) twice a week. Tumors were measured once every week, and at each measurement, the mean±SD tumor volume in the five mice in each group was calculated.
(§6) Mithramycin-A (MIT, 1 mg/vial crystal powder; lot 055K4011) was purchased from Sigma Chemical Co. (St. Louis, Mo.) and diluted in sterile water. BVZ (25 mg/ml; NDC 50242-060-01) from Genentech, Inc. (South San Francisco, Calif.) was purchased. For animal experiments, MIT (0.1 to 0.4 mg/kg body weight) and BVZ (25 to 100 μg/mouse) were administered by intraperitoneal or subcutaneous injections twice a week or as otherwise stated.
(§7) Female athymic BALB/c nude mice were purchased from The Jackson Laboratory (Bar Harbor, Me.). The mice were housed in laminar flow cabinets under specific pathogen-free conditions and used when they were 8 weeks old.
(§8) H727 and BON-1 tumor cells were injected into the subcutis of mice as described in the Materials and Methods. MIT treatment started when tumor sizes reached around 3-4 mm in diameters. […] Moreover, the residual tumors were harvested and angiogenesis was assessed by CD31 staining.
(§9) Specifically, we injected H727 and BON-1 cells subcutaneously into nude mice. […] We also administered PBS injections to animals as controls.
(§10) H727 and BON-1 cells were injected subcutaneously into nude mice and then administered treatment to them as described in FIG. 20.
For another data set, the system named is PANC-1 cells. Put plainly: PANC-1 subcutaneous xenograft, tumor volume and body weight. It counts as in vivo, nude mice. Conditions: BVZ 25 μg, MIT 0.10 mg/kg, or B+M. How it is done: FIG. 11. Synergistic antitumor effects of treatment with BVZ and MIT in xenograft models of human pancreatic cancer. […] C, representative tumor sizes in each group of BxPC3 model mice.
Next, we performed experiments using both BxPC3 and PANC-1 tumor cell models in which we administered PBS, BVZ (25 μg), MIT (0.10 mg/kg), or B+M to a group of nude mice.

In the next data set the test system is Sp1 promoter. The experiment in a line: Sp1 promoter luciferase reporter in PANC-1 cells. It counts as cell-based, human. The conditions noted are these: 100 μg/ml BVZ or 0.1 μM MIT. How it is done:
as §1
Sp1 promoter constructs and analysis of Sp1 promoter activity. […] The reporter luciferase activity was measured 48 hours later using a luciferase assay kit (Promega, Madison, Wis.). […]
For orientation: Reporter assays use an easily measured gene product as a stand-in for the process of interest.

Description for H727 cells: as §2, §3, §4, §5, §6, §7, §8, §9, §10

For bevacizumab [BVZ], the “Sp1 recruitment to its own promoter” value in data set [1] was “did not affect Sp1 recruitment”. In addition, the “antitumor activity at low dose” value with H727 cells (BVZ 25 μg, MIT 0.10 mg/kg, alone or combined, i.p. twice a week) is on record as “marginal antitumor activity”; in the data set with PANC-1 cells it was “marginal antitumor activity”. Further, the body weight entry with H727 cells (BVZ alone) is listed as “no discernable effects on body weight”. Further, the animal survival result in the data set on H727 cells (compared with PBS, 160 days) was “slightly increased survival rate”. Besides, in data set [2], the “human neuroendocrine tumor growth” value is on record as “suppressed human neuroendocrine tumor growth in nude mice in a dose-dependent manner”. Besides, the Sp1 promoter activity entry in the data set on Sp1 promoter was “did not suppress Sp1 promoter activity”.
